# Test results published in patent US7544700B2, “Pharmaceutically active sulfonamide derivatives bearing both lipophilic and ionisable moieties as inhibitors of protein JunKinases” (Laboratoires Serono SA, priority 2000, dated 2009).
# Experiments:
# GST-JNK3 = GST-JNK3 (Homo sapiens, UniProt P53779); assay: JNK3 in vitro assay (33P incorporation into c-jun, SPA); type: biochemical
# Method: The phosphorylation of c-jun by JNK2 or JNK3 may be followed by monitoring the incorporation of ^33P into c-jun following the protocol below. The inhibitory activity of the compounds according to formula I, in respect of c-jun phosphorylation through JNK, is determined by calculating the phosphorylation activity of a JNK in the presence or absence of the test compounds according to formula I.
# JNK3 and/or -2 assays are performed in 96 well NM plates: incubation of 0.5 μg of recombinant, pre-activated GST-JNK3 or GST-JNK2 with 1 μg of recombinant, biotinylated GST-c-Jun and 2 μM ^33γ-ATP (2 nCi/μl), in the presence or absence of compounds according to formula I and in a reaction volume of 50 μl containing 50 mM Tris-HCl, pH 8.0; 10 mM MgCl2; 1 mM Dithiothreitol, and 100 μM NaVO4. The incubation is performed for 120 min. at R.T and stopped upon addition of 200 μl of a solution containing 250 μg of Streptavidine-coated SPA beads (Amersham, Inc.)*, 5 mM EDTA, 0.1% Triton X-100 and 50 μM ATP, in phosphate saline buffer. After incubation for 60 minutes at RT, beads are sedimented by centrifugation at 1500×g for 5 minutes, resuspended in 200 μl of PBS containing 5 mM EDTA, 0.1% Triton X-100 and 50 μM ATP and the radioactivity measured in a scintillation β counter, following sedimentation of the beads as described above. By replacing biotinylated GST-c Jun with biotinylated GST-1ATF2 or biotinylated myelin basic protein, this assay may also be used to measure inhibition of pre-activated p38 and ERK MAP Kinases, respectively.
# JNK1 = JNK1 (Homo sapiens, UniProt P45983); assay: JNK1 inhibition; type: biochemical; conditions: read-out: inhibition (IC50) with regard to JNK1
# [1] = system: Hela luciferase reporter-c-Jun (HLR-c-Jun) cell lines; assay: C-Jun reporter assay; type: cell-based; conditions: Homo sapiens, MEKK-1 transfected HLR-c-Jun cells
# Description: The phosphorylation of the transcriptional factor, c-jun, by JNK in the MAP kinase signal transduction pathway can be followed via a trans-reporting system such as the commercially available PathDetect® (32).
# A trans-reporting system allows one to follow, via Luciferase activity, the activation status of a fusion trans-activator protein. The trans-activator protein consists of the activation domain of the transcriptional factor of interest (c-jun) fused with a yeast transcriptional activator, GAL4 DNA binding domain (dbd). The GAL4 dbd has the advantage that no known mammalian transcriptional factors can bind to it and therefore the background noise of the assay is very low.
# In the present case, Hela luciferase reporter-c-Jun (HLR-c-Jun) cell lines which constitutively express GAL4-cJun were used.
# The MEKK-1 gene was inserted. MEKK-1 is a MAPKKK which triggers the activation of JNK. Expression of wild type MEKK-1 is sufficient for JNK activation (33).
# Once, JNK is activated it can induce the phosphorylation of the c-jun domain of the fusion trans-activator protein (GAL4dbd-cJun) which forms a dimer. The dimer is then is able to bind to a GAL4 upstream activating sequence (GAL4 UAS) of the reporter which activates Luciferase expression.
# Luciferase expression is detected by luminescence using a simple assay such as Dual-Luciferase® Reporter Assay System (34) in which Renilla is used as a “control reporter”.
# Inhibition of JNK is observed as a decrease in Luciferase expression and detected by a decrease in luminescence.
# HLR-c-Jun cells are cultured in DMEM High Glc supplemented with 10% FCS (Sigma), 2 mM Glutamine (Gibco), P/S, Hygromycin b 100 μg/mL and G418 250 μg/mL.
# The cell suspensions are diluted with medium to give about 3.5×10^6 cells/mL and […] of cell suspension are put onto 2 10 cm culture dishes containing 9 mL of culture medium.
# Transfections • Control: 0.2 μg pTK Renilla, 5.8 μg pBluescript KS, 500 μl OPTIMEM (GOBCO), 18 μl Fugene 6. • Induced: 0.1 μg pMEKK1, 0.2 μg pTK Renilla, 5.7 μg pBluescript KS, 500 μl OPTIEM (GIBCO), 18 μl Fugene 6 30′ RT.
# The transfection mixture is added to the plated cells. The plates are incubated over night at 37° C. in a humidified atmosphere of 5% CO2 in air.
# A 96 wells plate (100 μl of culture medium per well) is prepared. Negative control (vehicle): 2 μl of DMSO is added to the 100 μl (in triplicate). […]
# The medium is removed from the plate and the cells are washed two times with 100 μl PBS. […] The luminometer reading is recorded.
# −50 μl of Luciferase Assay Reagent II are injected and readings are recorded at 5 and 10 minutes.
# 50 μl of Stop & Glo® Reagent are injected and readings are recorded at 5 and 10 minutes.
# The relative luminescence is then measured: RLU Luciferase/RLU Renilla.
# JNK1, sequence (P45983 whole entry, species assumed): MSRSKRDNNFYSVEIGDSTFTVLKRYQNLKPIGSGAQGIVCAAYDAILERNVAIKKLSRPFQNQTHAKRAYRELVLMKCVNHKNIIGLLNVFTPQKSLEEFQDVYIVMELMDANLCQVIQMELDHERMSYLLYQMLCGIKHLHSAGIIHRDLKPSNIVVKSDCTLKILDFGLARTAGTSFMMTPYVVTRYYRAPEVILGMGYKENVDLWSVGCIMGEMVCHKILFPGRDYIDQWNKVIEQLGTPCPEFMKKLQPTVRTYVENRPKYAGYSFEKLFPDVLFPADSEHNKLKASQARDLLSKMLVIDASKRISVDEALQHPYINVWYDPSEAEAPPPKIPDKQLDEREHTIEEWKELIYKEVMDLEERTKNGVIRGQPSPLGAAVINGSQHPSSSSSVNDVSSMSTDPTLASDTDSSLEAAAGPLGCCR
# GST-JNK3, sequence (P53779 whole entry): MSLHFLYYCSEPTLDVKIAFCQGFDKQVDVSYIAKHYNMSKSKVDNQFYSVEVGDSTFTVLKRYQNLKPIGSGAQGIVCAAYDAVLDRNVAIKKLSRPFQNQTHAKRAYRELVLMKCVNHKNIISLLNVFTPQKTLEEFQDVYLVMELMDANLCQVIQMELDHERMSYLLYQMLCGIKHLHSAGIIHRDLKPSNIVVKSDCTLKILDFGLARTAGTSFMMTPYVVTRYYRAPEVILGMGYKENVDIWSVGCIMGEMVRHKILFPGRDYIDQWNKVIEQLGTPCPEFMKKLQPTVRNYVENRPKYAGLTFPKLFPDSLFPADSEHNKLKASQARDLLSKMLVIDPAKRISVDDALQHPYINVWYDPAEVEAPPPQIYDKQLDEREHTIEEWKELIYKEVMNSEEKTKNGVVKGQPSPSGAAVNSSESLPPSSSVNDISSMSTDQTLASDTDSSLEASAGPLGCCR
smiles,measurement,setting,value
"COc1cccc(C(=O)NCc2ccc(S(=O)(=O)N3CCC(NCc4ccc(C(F)(F)F)cc4)CC3)s2)c1 [Example 1, 3-Methoxy-N-{[5-({4-[(4-trifluoromethylbenzyl)amino]piperidin-1-yl}sulfonyl)thien-2-yl]methyl}benzamide]",IC50,GST-JNK3,< 600 nM
same,IC50,JNK1,100 to 700 nM
same,IC50,[1],< 700 nM
